Experimental data taken from patent US6906035B2, “Antimicrobial cationic peptides” (priority 1995, dated 2005).
“And” between values parts separate entries of the source, which are not always exact repeats. Equal values may be shown once. Read-outs that look alike come from different tables or passages of the source. Ends that are not written are not given here.

Tests used:
P. aeruginosa [1] = system: P. aeruginosa
Procedure, shortened: (§1)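 Overnight cultures in salt-free Luria broth (LB-S) were diluted to about 10^4–10^5 CFU/ml. Cells were exposed to two-fold serial dilutions of compound and incubated overnight at 37 °C. MIC was scored from visible growth.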

S. epidermis = details: S. epidermis
Procedure, shortened: as §1

A. calcoaceticus [2] = test: MIC, broth dilution in LB-S; format: cell-based; details: additional MICs
Procedure, shortened: (§2)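 Overnight cultures in salt-free Luria broth (LB-S) were diluted 1:10,000 (about 10^4–10^5 CFU/ml) and added to two-fold serial broth dilutions of compound. After overnight incubation at 37° C, wells were scored for growth, and the MIC was the lowest concentration preventing growth.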

E. cloacae [3] = test: MIC, broth dilution in LB-S; format: cell-based; details: additional MICs
Procedure, shortened: as §2

E. coli = test: MIC, broth dilution in LB-S; format: cell-based
Procedure, shortened: as §2

E. faecalis = test: MIC, broth dilution in LB-S; format: cell-based; details: Table 1b, separate set of experiments
Procedure, shortened: as §2

K. pneumoniae = test: MIC, broth dilution in LB-S; format: cell-based; details: additional MICs
Procedure, shortened: as §2

S. aureus = test: MIC, broth dilution in LB-S; format: cell-based
Procedure, shortened: as §2

X maltophilia = test: MIC, broth dilution in LB-S; format: cell-based; details: additional MICs
Procedure, shortened: as §2

Candida albicans = test: MIC, broth dilution in LB-S; format: cell-based
Experimental: (§3) FICs are performed by checkerboard titrations of peptides in one dimension of a microtiter plate, and of antibiotics in the other dimension, for example. The FIC is calculated by looking at the impact of one antibiotic on the MIC of the other and vice versa. […] Preferably, an FIC of less than 0.5 is obtained for synergism. As used herein, FIC can be determined as follows: [formula]
Briefly, cells were grown overnight at 37° C. in LB-S (Luria broth without any salt supplement) and diluted one in 10,000 in the same medium to give concentrations of about 10^4 to 10^5 CFU/ml. The broth dilutions were set up in a 96 well microtiter plate by putting 200 μl of LB-S containing the initial concentration of antibiotic or compound in column 1 and 100 μl of the same medium in columns 2-12. The compounds were diluted by taking 100 μl of broth from column 1 and mixing it with column 2, resulting in a one in two dilution. This was continued to column 10. Finally, 10 μl of bacteria were pipetted into columns 1-11, and the plates incubated overnight at 37° C. The next day the plates were scored for growth in the wells, and the MIC determined.

E. coli ML 35 = test: Inner membrane permeabilization (ONPG hydrolysis by β-galactosidase); format: cell-based; details: E. coli ML 35, ONPG
Experimental: Inner membrane permeability was determined by measurement in E. coli ML 35 of β-galactosidase activity using ONPG as a substrate. Normally ONPG cannot pass across the cytoplasmic membrane to permit hydrolysis by the cytoplasmic enzyme β-galactosidase. However, cationic peptides, by permeabilizing the inner membrane, unmasks this enzyme leading to color development as ONP is released. […] Addition of citrate increased the lag time before the peptides were able to permeabilize the membranes. When the experiments were executed in cation adjusted media (CAMHB), the lag time was increased up to 30 minutes.

LPS = test: Dansyl polymyxin displacement assay; format: binding; details: Dansyl polymyxin displacement from LPS
Text: In addition, the peptides of SEQ ID NO: 5-8 also bound effectively to LPS with high affinity based on Dansyl polymyxin displacement assays (Table 5).

Red Blood Cells = test: Red blood cell lysis; format: cell-based; details: concentration lysing Red Blood Cells
[4] = α helical content by CD spectra; format: physicochemical
Experimental: α Helical Content of Cationic Peptides by CD Spectra
The α helical content of the peptides were measured in buffer, liposomes and 20% Hexafluoroisopropanol (HFPIP). The liposomes constituted of POPC alone or POPC and POPC and 30% POPG (Table 7).

A. calcoaceticus [5] = details: agent alone
Experimental: as §3
(§4) Synergism is identified as an FIC of about ≦0.5.

E. cloacae [6] = details: agent alone
Experimental: as §3, §4

P. aeruginosa [7] = test: microbe, parasite or virus in culture; details: agent alone
Experimental: as §3, §4

X. maltophila = test: organism not typed; details: agent alone
Experimental: as §3, §4

## KWKSFIKKLTSAAKKVVTTAKPLISS [MBI 26]
P. aeruginosa [1]; P. aeruginasa (H 103), additional MICs
  MIC: 4 µg/mL
P. aeruginosa [1]; P. aeruginosa (H187), Table 1a
  MIC: 11 µg/mL
P. aeruginosa [1]; P. aeruginosa (H187), Table 1b, separate set of experiments
  MIC: 32 µg/mL
P. aeruginosa [1]; P. aeruginosa (H187), Table 6
  MIC P. aeruginosa (H187): 4.5 µg/mL
S. epidermis; Table 1a
  MIC: ≧64
S. epidermis; Table 1b, separate set of experiments
  MIC: 32 µg/mL
A. calcoaceticus [2]
  MIC: 2 µg/mL
E. cloacae [3]
  MIC: 2 µg/mL
E. coli; E. coli 0111:B4, additional MICs
  MIC: 2 µg/mL
E. coli; E. coli (UB1005), Table 1a
  MIC: 3 µg/mL
E. coli; E. coli (UB1005), Table 1b, separate set of experiments
  MIC: 4 µg/mL
E. coli; E. coli (UB 1005), Table 6
  MIC E. coli (UB 1005): 1.1 µg/mL
E. coli; E. coli. Bort, additional MICs
  MIC: 2 µg/mL
E. faecalis
  MIC: ≧64
K. pneumoniae
  MIC: 8 µg/mL
S. aureus; S. aureus (K 147), Table 1a
  MIC: ≧64
S. aureus; S. aureus (K147), Table 1b, separate set of experiments
  MIC: ≧64
S. aureus; S. aureus (SAP0017), Table 1a
  MIC: ≧64
S. aureus; S. aureus (SAP0017), Table 1b, separate set of experiments
  MIC: ≧64
X maltophilia
  MIC: 2 µg/mL
Candida albicans; Candida albicans (CAN105), Table 1b, separate set of experiments
  MIC: ≧64
Candida albicans; Candida alibicans (CAN105), Table 1a
  MIC: ≧64
E. coli ML 35
  Lag Time: 210 s
  Rate of Hydrolysis: 0.081 ΔAU min^−1
LPS
  1max: 38%
Red Blood Cells
  RBC Lysis: >55 µg/mL
[4]; 20% HFIP
  % α helicity: 70%
[4]; Buffer
  % α helicity: 0%
[4]; POPC Liposomes
  % α helicity: 0%
[4]; POPC/POPG Liposomes (30% POPG)
  % α helicity: 8%
A. calcoaceticus [5]; A. calcoaceticus isolate 1, strain ATCC 23055
  MIC: 128 µg/mL and 64 µg/mL
A. calcoaceticus [5]; A. calcoaceticus isolate 2, strain 23
  MIC: 32 µg/mL and 64 µg/mL
A. calcoaceticus [5]; A. calcoaceticus isolate 3, strain 27
  MIC: 64 µg/mL and 32 µg/mL
A. calcoaceticus [5]; A. calcoaceticus isolate 4, strain 28
  MIC: 16 µg/mL and 32 µg/mL
A. calcoaceticus [5]; A. calcoaceticus isolate 5, strain 8220
  MIC: 64 µg/mL and 32 µg/mL
A. calcoaceticus [5]; A. calcoaceticus isolate 6, strain 8221
  MIC: 64 µg/mL
A. calcoaceticus [5]; A. calcoaceticus isolate 7, strain 8222
  MIC: 64 µg/mL
A. calcoaceticus [5]; A. calcoaceticus isolate 8, strain 8223
  MIC: 64 µg/mL and 32 µg/mL
A. calcoaceticus [5]; A. calcoaceticus isolate 9, strain 8224
  MIC: 64 µg/mL
A. calcoaceticus [5]; A. calcoaceticus isolate 10, strain 8225
  MIC: 64 µg/mL
A. calcoaceticus [5]; A. calcoaceticus isolate 11, strain 8226
  MIC: 64 µg/mL
E. cloacae [6]; E. cloacae isolate 14, strain 938-2
  MIC: 64 µg/mL
E. cloacae [6]; E. cloacae isolate 15, strain B5546
  MIC: 64 µg/mL and 32 µg/mL
E. cloacae [6]; E. cloacae isolate 16, strain R4148
  MIC: 64 µg/mL and 32 µg/mL
E. cloacae [6]; E. cloacae isolate 17, strain R4148-2
  MIC: 64 µg/mL and 32 µg/mL
E. cloacae [6]; E. cloacae isolate 18, strain 3077
  MIC: 64 µg/mL
E. cloacae [6]; E. cloacae isolate 19, strain 3356
  MIC: 128 µg/mL and 64 µg/mL
P. aeruginosa [7]; P. aeruginosa isolate 23, strain ATCC 27853
  MIC: 64 µg/mL and 128 µg/mL
P. aeruginosa [7]; P. aeruginosa isolate 24, strain 34
  MIC: 64 µg/mL and 128 µg/mL
P. aeruginosa [7]; P. aeruginosa isolate 25, strain 923-1
  MIC: 64 µg/mL and 128 µg/mL
P. aeruginosa [7]; P. aeruginosa isolate 26, strain 3101
  MIC: 64 µg/mL and 128 µg/mL
X. maltophila; X. maltophila isolate 34, strain ATCC 13637
  MIC: 64 µg/mL
X. maltophila; X. maltophila isolate 35, strain 6
  MIC: 64 µg/mL and 128 µg/mL
X. maltophila; X. maltophila isolate 40, strain R1302-1
  MIC: 128 µg/mL and 64 µg/mL
X. maltophila; X. maltophila isolate 41, strain R4230
  MIC: 64 µg/mL
